Source: US8222242B2, “Nitric oxide releasing compounds” (The Regents of the University of California, priority 2008, dated 2012)

Experiments:
[1] = tested on: vasodilator-stimulated phosphoprotein (VASP) phosphorylated on Ser239 in CS-54 rat vascular smooth muscle cells; experiment: VASP phosphorylation in CS-54 cells (immunoblot); type: cell-based
Procedure: CS-54 rat vascular smooth muscle cells were treated with the indicated concentrations of NO-Cbi for 1 hour (A), or 10 μM NO-Cbi for the indicated times (B and C). […] In A and B, “Con” refers to control, which was cells treated with water. As indicated, the effects of 30 μM cobinamide (Cbi) and 100 μM 8-CPT-cGMP (cGMP) are shown for comparison. In A and B, similar results were obtained in two other experiments.
Briefly, cells treated with an NO-releasing agent were extracted rapidly in a sodium dodecyl sulfate (SDS) containing sample buffer, and the cell extracts were subjected to SDS-polyacrylamide gel electrophoresis. Phospho-VASP was assessed by immunoblotting using an antibody specific for VASP phosphorylated on Ser259 (Smolenski A et al. (1998) J. Biol. Chem. 273:20029-35).
To determine if NO released from NO-Cbi can have a physiologic effect in cultured cells, vasodilator-stimulated phosphoprotein (VASP) phosphorylation was assessed in CS-54 cells.

rabbits [2] = experiment: Continuous intravenous infusion in anesthetized rabbits: systemic hemodynamics and gas exchange; type: in vivo, rabbit
Procedure: NO-Cbi was given by intravenous infusion at a dose of 5 μg/kg/min (4.8 nmol/kg/min) to a 3.5 kg rabbit. […] The infusion was stopped at 10 minutes, but, because of drawing blood through the arterial line for blood gas analysis, the first measurement of blood pressure occurred 6 minutes later. Full recovery required 12 minutes, but it is possible that the initial rate of recovery was faster than shown in the graph. A small overshoot occurred in both systolic and diastolic blood pressure, before returning to pre-treatment levels.
(§1) Continuous intravenous NO-Cbi infusions were performed in anesthetized rabbits with systemic hemodynamic monitoring, continuous gas exchange analysis, and diffuse optical spectroscopy (DOS) and continuous wave near-infrared spectroscopy monitoring. DOS monitoring was over muscle as a representation of peripheral tissue, and continuous wave spectroscopy was over muscle and brain region. Six animals have been studied to date, varying NO-Cbi infusion rates in each animal between 1.7 and 6.9 μg/kg/min (1.6 and 6.7 nmol/kg/min).
The blood pressure of rabbits is similar to that of humans, but because of anesthesia, initial blood pressures in the rabbits were on average ˜80/60 mm Hg (FIG. 6). […] Blood pressure returned to baseline within 12 minutes of stopping the infusion, and starting and stopping the infusion repeatedly yielded similar results.

rabbits [3] = experiment: Tissue hemoglobin and cytochrome c oxidase in rabbit muscle and brain (DOS, continuous wave near-infrared spectroscopy); type: in vivo
Procedure: NO-Cbi at a dose of 5 μg/kg/min (4.8 nmol/kg/min) was given to a 4 kg rabbit starting at 2 minutes and ending at 11.5 minutes; the drug's effect was monitored by diffuse optical spectroscopy (DOS) over the left thigh muscle. […] All of these changes reversed within 1 minute of stopping the NO-Cbi with a small overshoot in both the oxy- and deoxyhemoglobin concentrations.
NO-Cbi was given to a 3.9 kg rabbit at doses of 6.87, 3.44, and 1.72 μg/kg/min (6.6, 3.3, 1.7 nmol/kg/min), as indicated in the brown rectangular boxes corresponding to drug infusion rates of 1.8, 0.9, and 0.45 ml/min, respectively. Infusion times were for 10 minutes, followed by a 20 minute wash-out period. Oxy-, deoxy- and total hemoglobin concentrations were monitored in the brain by continuous wave near-infrared spectroscopy; changes in hemoglobin concentration are shown as relative units, because continuous wave spectroscopy is not quantitative due to light loss from scattering. As occurred in peripheral muscle (FIG. 7), NO-Cbi caused the deoxyhemoglobin concentration to increase and the oxyhemoglobin concentration to decrease. […] The gradual decrease in total hemoglobin over time was from blood sampling for blood gases and blood hemoglobin content. A dose response effect of NO-Cbi on all three hemoglobin concentration changes can be seen.
as §1

rabbits [4] = experiment: Rabbits with phenylephrine-induced hypertension; type: in vivo, rabbit
Procedure: Phenylephrine was given by continuous intravenous infusion to an anesthetized rabbit at increasing rates from 5 to 20 μg/kg/min; the rabbit remained on the highest phenylephrine infusion rate until the end of the experiment (darker arrows with “A”-shaped arrowheads indicate start times of each increasing dose). At 49 minutes, an infusion of NO-Cbi was started at a rate of 3 μg/kg/min (2.9 nmol/kg/min), with the infusion rate doubled at 58 minutes (lighter arrows with triangular-shaped arrowheads indicate start times of infusions). Systolic and diastolic blood pressure recordings from an intra-arterial catheter are shown. Changes in total hemoglobin, oxyhemoglobin, and deoxyhemoglobin concentrations were measured by continuous wave near-infrared spectroscopy over the left thigh muscle. Phenylephrine caused a progressive decrease in total hemoglobin and oxyhemoglobin concentrations, which reversed within seconds of starting the NO-Cbi infusion.
Decreased tissue oxygenation as occurred in the experiments shown in FIGS. 7 and 8 would clearly be an undesirable effect of treating hypertensive patients with NO-Cbi. However, lowering blood pressure of a hypertensive patient is very different from lowering blood pressure of a normotensive subject, and the experiments described in Example 15 rabbits with normal or low (due to anesthesia) blood pressure. To simulate a hypertensive state, the blood pressure of rabbits was raised using a continuous intravenous infusion of phenylephrine, a peripheral vasoconstrictor (FIG. 9). As the rabbit's blood pressure increased above normal, tissue perfusion and oxygenation decreased, as evidenced by a decrease in total hemoglobin and oxyhemoglobin concentrations in muscle.
Thus, in an animal with drug-induced hypertension, NO-Cbi improved tissue perfusion and oxygenation as it lowered blood pressure.

[5] = tested on: CS-54 rat vascular smooth muscle cells
Procedure: CS-54 rat vascular smooth muscle cells were treated with the indicated concentrations of NO-Cbi for 1 hour (A), or 10 μM NO-Cbi for the indicated times (B and C). […] (C) Cell extracts were clarified by centrifugation, and nitrite and nitrate in the extracts were measured by an enhanced Griess reagent method. In A and B, “Con” refers to control, which was cells treated with water. As indicated, the effects of 30 μM cobinamide (Cbi) and 100 μM 8-CPT-cGMP (cGMP) are shown for comparison. In A and B, similar results were obtained in two other experiments.
Nitrite and nitrate were measured in CS-54 cell extracts and fly extracts using a kit from Active Motif based on an enhanced Griess reagent, as described previously (Broderick K E et al. (2006) FASEB J. 20:1865-73).

[6] = continuous gas exchange monitoring

SMILES: CC1=C2[N+]3=C(C=C4[N+]5=C(C(C)=C6[N]7C(C(CC(N)=O)C6(C)CCC(=O)NCC(C)O)C6(C)[N+](=C1C(CCC(N)=O)C6(C)CC(N)=O)[Co-3]753[N]=O)C(CCC(N)=O)C4(C)C)C(CCC(N)=O)C2(C)CC(N)=O (stereo not drawn) [NO-Cbi, nitrosyl cobinamide]
- course of VASP phosphorylation after the maximum ([1]; 10 μM NO-Cbi): declined over the ensuing 4 hours
- time at which effect on VASP phosphorylation could be observed ([1]; 10 μM NO-Cbi): 15 min
- time of maximal effect on VASP phosphorylation ([1]; 10 μM NO-Cbi): 30 to 60 min
- VASP phosphorylation ([1]; 1 to 30 μM, 1 hour, CS-54 cells): induced VASP phosphorylation
- time to new steady-state of blood pressure (rabbits [2]; 5 μg/kg/min intravenous infusion): 5 min
- time until systolic and diastolic blood pressures began to decrease (rabbits [2]; 5 μg/kg/min intravenous infusion, 3.5 kg rabbit): ≤ 15 s
- time required for full recovery of blood pressure (rabbits [2]; 5 μg/kg/min, infusion stopped at 10 minutes): 12 min
- arterial-venous oxygen differences (rabbits [2]; [6]): increased arterial-venous oxygen differences
- end tidal CO2 (rabbits [2]; [6]): decreased end tidal CO2
- effects on blood pressure compared with nitroprusside (rabbits [2]; equimolar amounts): more rapid and pronounced than those with equimolar amounts of nitroprusside
- cardiac output (direct Fick method) (rabbits [2]; intravenous infusion): decreased
- heart rate (rabbits [2]; intravenous infusion): did not change significantly
- time for blood pressure to return to baseline after stopping the infusion (rabbits [2]; intravenous infusion): ≤ 12 min
- blood pressure (rabbits [2]; intravenous infusion 1.7 to 6.9 μg/kg/min): marked infusion-rate-dependent decrease in blood pressure
- physiological half-life of NO-Cbi (rabbits [2]; suggested by return of blood pressure): 5-6 minutes
- time for changes to reverse after stopping NO-Cbi (rabbits [3]; 5 μg/kg/min, thigh muscle, DOS): ≤ 1 min
- total tissue hemoglobin (rabbits [3]; brain): increased slightly in brain
- deoxyhemoglobin concentrations (rabbits [3]; brain and muscle): increased deoxyhemoglobin concentrations
- hemoglobin oxygen saturation (rabbits [3]; brain and muscle): decrease in hemoglobin oxygen saturation
- tissue oxyhemoglobin concentrations (rabbits [3]; brain and muscle): decreased tissue oxyhemoglobin concentrations
- cytochrome redox state (rabbits [3]; muscle): decreasing the cytochrome redox state
- total tissue hemoglobin (rabbits [3]; muscle): decreased slightly in muscle
- blood pressure (rabbits [4]; NO-Cbi infusion 3 μg/kg/min during phenylephrine, within seconds): began to decrease
- total tissue hemoglobin and oxyhemoglobin concentrations (rabbits [4]; NO-Cbi infusion during phenylephrine): increased
- increased nitrite and nitrate as share of the NO added as NO-Cbi ([5]; 10 μM NO-Cbi, CS-54 cells): 55%
- nitrite and nitrate in the culture medium ([5]; 10 μM NO-Cbi, CS-54 cells): increased nitrite and nitrate
- half-life of NO-Cbi estimated from nitrite and nitrate accumulation ([5]; rat): 30 min and 60 min
